Data reported in patent publication US7507860B2 (Pfizer Inc., priority 2004, dated 2009).
Where a chain is given by its changes, count along the chain named. Where two headings read alike, the source gives them in different places.

Key:
[1] = biological target: T1, human androgen receptor (hAR) (Homo sapiens, UniProt P10275); experiment: Competitive binding analysis on baculovirus/Sf9 generated hAR extracts with 3H-DHT tracer; details: hAR extract, 1 nM 3H-DHT, one hour at 4° C, mean of multiple tests
T1 construct: made in house; host or cells: baculovirus/Sf9 insect cells (crude extract)
T1 sequence (P10275 1-920): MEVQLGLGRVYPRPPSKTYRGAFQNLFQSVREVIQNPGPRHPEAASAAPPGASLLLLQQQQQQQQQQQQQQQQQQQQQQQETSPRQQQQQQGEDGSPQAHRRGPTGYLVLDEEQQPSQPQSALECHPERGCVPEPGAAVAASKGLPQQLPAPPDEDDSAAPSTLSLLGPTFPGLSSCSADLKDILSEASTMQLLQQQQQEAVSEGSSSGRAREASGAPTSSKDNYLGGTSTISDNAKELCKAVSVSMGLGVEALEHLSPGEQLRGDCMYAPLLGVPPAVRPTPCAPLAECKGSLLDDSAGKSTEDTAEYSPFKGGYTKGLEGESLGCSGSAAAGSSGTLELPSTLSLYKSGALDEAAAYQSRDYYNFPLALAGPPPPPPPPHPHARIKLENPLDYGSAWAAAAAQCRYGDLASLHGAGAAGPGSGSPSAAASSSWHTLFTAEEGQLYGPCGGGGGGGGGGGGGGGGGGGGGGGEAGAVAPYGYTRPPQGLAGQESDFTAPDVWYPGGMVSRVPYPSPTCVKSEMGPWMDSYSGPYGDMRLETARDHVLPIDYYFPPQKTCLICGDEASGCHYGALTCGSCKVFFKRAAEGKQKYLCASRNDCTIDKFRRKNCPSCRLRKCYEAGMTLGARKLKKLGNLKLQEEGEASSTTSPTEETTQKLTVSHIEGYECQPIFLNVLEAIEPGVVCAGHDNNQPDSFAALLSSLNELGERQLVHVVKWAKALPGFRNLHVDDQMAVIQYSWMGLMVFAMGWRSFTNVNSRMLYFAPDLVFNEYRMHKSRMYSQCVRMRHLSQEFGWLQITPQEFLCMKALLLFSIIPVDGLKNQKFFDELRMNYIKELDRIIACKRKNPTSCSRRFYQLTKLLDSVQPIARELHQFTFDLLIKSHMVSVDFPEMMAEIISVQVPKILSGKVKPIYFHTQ
Summary of the method: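 Baculovirus/Sf9-expressed hAR extract incubated with hydroxylapatite, 1 nM 3H-DHT and decreasing compound concentrations for 1 h at 4 °C, then washed three times to remove unbound tracer. Bound 3H-DHT compared with no-competitor maximum; affinity given as concentration inhibiting half of maximum binding, mean of multiple tests.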

androgen receptor = biological target: T2, androgen receptor (Homo sapiens, UniProt P10275); experiment: AR antagonist cell assay (MDA-MB453-MMTV clone 54-19 luciferase reporter, 100 pM DHT); format: cell-based
T2 sequence (P10275 1-920 Q868H): T1 sequence (P10275 1-920) with Q868H
Summary of the method: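 MDA-MB453 cells stably carrying an MMTV-ARE firefly luciferase reporter were plated overnight at 10,000/well in phenol-red-free, charcoal-stripped serum medium. Cells were stimulated with 100 pM DHT (final) for 17 hr at 37 °C, and AR antagonism was read as luciferase signal; values are means of multiple tests.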

[2] = MDA-MB453-MMTV clone 54-19, inhibition of 100 pM DHT induction, 17 hr; mean of multiple tests; read-out: AR Cell IC50
[3] = read-out: AR Cell IC50; MDA-MB453-MMTV clone 54-19, inhibition of 100 pM DHT induction, 17 hr; mean of multiple tests

Structure (SMILES) | IC50 ([1]; read-out: AR Binding IC50) [nM] | IC50 (androgen receptor; [2]) [µM] | IC50 ([1]; AR Binding IC50 (nM)) [nM] | IC50 (androgen receptor; [3]) [µM]
CCCOCCNC(=O)C(CC(C)C)Oc1ccc(C#N)c(C(F)(F)F)c1 (stereo not shown) [Example 81, 2-(4-Cyano-3-trifluoromethyl-phenoxy)-4-methyl-pentanoic acid (2-propoxy-ethyl)amide] | 142 | > 1 | – | –
CCC(COC)NC(=O)C(CC(C)C)Oc1ccc(C#N)c(C(F)(F)F)c1 (stereo not shown) [Example 82, 2-(4-Cyano-3-trifluoromethyl-phenoxy)-4-methyl-pentanoic acid (1-methoxymethyl-propyl)-amide] | 218 | > 1 | – | –
CSCCNC(=O)C(CC(C)C)Oc1ccc(C#N)c(C(F)(F)F)c1 (stereo not shown) [Example 83, 2-(4-Cyano-3-trifluoromethyl-phenoxy)-4-methyl-pentanoic acid (2-methylsulfanyl-ethyl)-amide] | 85 | > 1 | – | –
Cc1c(O)cccc1NC(=O)C(CC(C)C)Oc1ccc(C#N)c(C(F)(F)F)c1 (stereo not shown) [Example 84, 2-(4-Cyano-3-trifluoromethyl-phenoxy)-4-methyl-pentanoic acid (3-hydroxy-2-methyl-phenyl)-amide] | 112 | > 1 | – | –
CCCOCCCNC(=O)C(CC(C)C)Oc1ccc(C#N)c(C(F)(F)F)c1 (stereo not shown) [Example 85, 2-(4-Cyano-3-trifluoromethyl-phenoxy)-4-methyl-pentanoic acid (3-propoxy-propyl)-amide] | 117 | > 1 | – | –
CCN(CCOC)C(=O)C(CC(C)C)Oc1ccc(C#N)c(C(F)(F)F)c1 (stereo not shown) [Example 86, 2-(4-Cyano-3-trifluoromethyl-phenoxy)-4-methyl-pentanoic acid ethyl(2-methoxyethyl)-amide] | 25 | > 1 | – | –
COc1ccccc1NC(=O)C(CC(C)C)Oc1ccc(C#N)c(C(F)(F)F)c1 (stereo not shown) [Example 87, 2-(4-Cyano-3-trifluoromethyl-phenoxy)-4-methyl-pentanoic acid (2-methoxy-phenyl)-amide] | 119 | > 1 | – | –
CCCCC(Oc1ccc(C#N)c(C(F)(F)F)c1)C(=O)NCc1ccccc1 (stereo not shown) [Example 91, 2-(4-Cyano-3-trifluoromethyl-phenoxy)-hexanoic acid benzylamide] | 70 | 0.535 | – | –
CC(C)C(Oc1ccc(C#N)c(C(F)(F)F)c1)C(=O)NCc1ccccc1 (stereo not shown) [Example 92, N-Benzyl-2-(4-Cyano-3-trifluoromethyl-phenoxy)-3-methyl-butyramide] | 348 | 0.562 | – | –
CCC(Oc1ccc(C#N)c(C(F)(F)F)c1)C(=O)NCc1ccccc1 (stereo not shown) [Example 93, N-Benzyl-2-(4-Cyano-3-trifluoromethyl-phenoxy)-butyramide] | – | 0.563 | 485 | –
CC(C)C[C@@H](Oc1ccc(C#N)c(C(F)(F)F)c1)C(=O)NCc1ccccc1 [Example 94, (R)-2-(4-Cyano-3-trifluoromethyl-phenoxy)-4-methyl-pentanoic acid benzylamide] | – | 0.14 | 66 | –
CCC[C@@H](Oc1ccc(C#N)c(C(F)(F)F)c1)C(=O)NCc1ccccc1 [Example 95, (R)-2-(4-Cyano-3-trifluoromethyl-phenoxy)-pentanoic acid benzylamide] | – | 0.032 | 126 | –
CCC[C@@H](Oc1ccc(C#N)c(C(F)(F)F)c1)C(=O)NCc1ccccc1C [Example 96, (R)-2-(Cyano-3-trifluoromethyl-phenoxy)-pentanoic acid 2-methyl-benzylamide] | – | 0.138 | 95 | –
CCCC(Oc1ccc(C#N)c(C(F)(F)F)c1)C(=O)NCCc1c[nH]c2ccc(OC)cc12 (stereo not shown) [Example 97, 2-(4-Cyano-3-trifluoromethyl-phenoxy)-pentanoic acid [2-(5-methoxy-1H-indol-3-yl)-ethyl]-amide] | 111 | – | – | 0.026
CCCC(Oc1ccc(C#N)c(Cl)c1)C(=O)OCC (stereo not shown) [Example 99, 2-(3-Chloro-4-cyano-phenoxy)-pentanoic acid ethyl ester] | 31 | 0.749 | – | –
CCCC(Oc1ccc(C#N)c(Cl)c1)C(=O)NCCc1c[nH]c2ccccc12 (stereo not shown) [Example 101, 2-(3-Chloro-4-cyano-phenoxy)-pentanoic acid [2-(1H-indol-3-yl)-ethyl]-amide] | 53 | 0.038 | – | –
CCCC(Oc1ccc(C#N)c(Cl)c1)C(=O)NCc1ccccc1 (stereo not shown) [Example 102, 2-(3-Chloro-4-cyano-phenoxy)-pentanoic acid benzylamide] | 125 | – | – | 0.027
CCCC(Oc1ccc(C#N)c(Cl)c1)C(=O)NCCc1ccc(O)cc1 (stereo not shown) [Example 103, 2-(3-Chloro-4-cyano-phenoxy)-pentanoic acid [2-(4-hydroxy-phenyl)-ethyl]-amide] | 140 | – | – | 0.087
CCC[C@H](Oc1ccc(C#N)c(Cl)c1)C(=O)NCc1ccccc1 [Example 104, (S)-2-(3-Chloro-4-cyano-phenoxy)-pentanoic acid benzylamide] | 241 | – | – | 0.007
CCC[C@H](Oc1ccc(C#N)c(Cl)c1)C(=O)NCCc1ccc(O)cc1 [Example 105, (S)-2-(3-Chloro-4-cyano-phenoxy)-pentanoic acid [2-(4-hydroxy-phenyl)ethyl]amide] | 241 | – | – | 0.088
CCC[C@H](Oc1ccc(C#N)c(Cl)c1)C(=O)NCCc1c[nH]c2ccccc12 [Example 106, (S)-2-(3-Chloro-4-cyano-phenoxy)-pentanoic acid [2-(1H-indol-3-yl)-ethyl]-amide] | 47 | 0.003 | – | –
CCC[C@H](Oc1ccc(C#N)c(C(F)(F)F)c1)C(=O)NCc1cccc(C)c1 [Example 107, (S)-2-(4-Cyano-3-trifluoromethyl-phenoxy)-pentanoic acid-3-methyl-benzylamide] | 93 | < 0.00032 | – | –
CCC[C@H](Oc1ccc(C#N)c(C(F)(F)F)c1)C(=O)NCCc1c[nH]c2ccccc12 [Example 108, (S)-2-(4-Cyano-3-trifluoromethyl-phenoxy)-pentanoic acid [2-(1H-indol-3-yl)ethyl]-amide] | 21 | < 0.00032 | – | –
CCC[C@H](Oc1ccc(C#N)c(C(F)(F)F)c1)C(=O)NCCc1ccc(O)cc1 [Example 109] | 251 | 0.058 | – | –
CC(C)C[C@@H](Oc1ccc(C#N)c(C(F)(F)F)c1)C(=O)NCCc1ccc(O)cc1 [Example 111] | 148 | 0.164 | – | –
CCCC(Oc1ccc(C#N)c(C(F)(F)F)c1)C(=O)NC(C)c1ccc(OC)cc1 (stereo not shown) [Example 113, 2-(4-Cyano-3-trifluoromethyl-phenoxy)-pentanoic acid [1-(4-methoxy-phenyl)-ethyl]-amide] | 654 | 0.681 | – | –
